Reference: patent US20200354426A1 (MEDIMMUNE LIMITED, priority 2016, published 2020)
Where two headings read alike, the source gives them in different places. Numbered stars: 1 amine (or outer) side, 2 acyl side, 3 side chain; on linkers, the order of the positions; unused ones are H or OH. Side chains are listed from the residue outwards. Peptide text beside a SMILES is read from it. * marks the point of attachment. γGlu = O=C(O)[C@H](CCC(=O)[*:2])N[*:1]; Palmitoyl = CCCCCCCCCCCCCCCC(=O)*; Ahx = NCCCCCC(=O)O; βAla = NCCC(=O)O

Experiments:
Test in all cases: cAMP activity assay in assay medium (assay 1)
Assay type in all cases: cell-based
Conditions in all cases: Table 4
[1] = biological target: T1, Human GIPr (Homo sapiens, UniProt P48546)
T1 construct: expressed in transfected cells
T1 sequence (P48546 22-466): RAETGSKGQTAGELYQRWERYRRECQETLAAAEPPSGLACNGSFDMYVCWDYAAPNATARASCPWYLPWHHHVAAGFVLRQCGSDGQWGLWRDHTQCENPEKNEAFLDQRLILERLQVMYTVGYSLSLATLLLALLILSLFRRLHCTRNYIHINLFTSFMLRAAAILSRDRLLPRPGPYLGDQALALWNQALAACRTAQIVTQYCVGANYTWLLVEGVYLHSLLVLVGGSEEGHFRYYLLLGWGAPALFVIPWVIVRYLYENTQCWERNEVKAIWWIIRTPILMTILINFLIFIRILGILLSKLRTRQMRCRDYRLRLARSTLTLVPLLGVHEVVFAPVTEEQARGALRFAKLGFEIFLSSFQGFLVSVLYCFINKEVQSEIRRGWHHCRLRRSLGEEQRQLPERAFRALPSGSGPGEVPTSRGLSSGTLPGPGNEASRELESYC
Text: (§1) Biological Activity of Peptides in Cell-Based cAMP Activity Assay (Assay 1):
(§2) All sample dilutions were made in duplicate.

[2] = biological target: T2, Human GlucR (Homo sapiens, UniProt P47871)
T2 construct: expressed in transfected cells
T2 sequence (P47871 26-477): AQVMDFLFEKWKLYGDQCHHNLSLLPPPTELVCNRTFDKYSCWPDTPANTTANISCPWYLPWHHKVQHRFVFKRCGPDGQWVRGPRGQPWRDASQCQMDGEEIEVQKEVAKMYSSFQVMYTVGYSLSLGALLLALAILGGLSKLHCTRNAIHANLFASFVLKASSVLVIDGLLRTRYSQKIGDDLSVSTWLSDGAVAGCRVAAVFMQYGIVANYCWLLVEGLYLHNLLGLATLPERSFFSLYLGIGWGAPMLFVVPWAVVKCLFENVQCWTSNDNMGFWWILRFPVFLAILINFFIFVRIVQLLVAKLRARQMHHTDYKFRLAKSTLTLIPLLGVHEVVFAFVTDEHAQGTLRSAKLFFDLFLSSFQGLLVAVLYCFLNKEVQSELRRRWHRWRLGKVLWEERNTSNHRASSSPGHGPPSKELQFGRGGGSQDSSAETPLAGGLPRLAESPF
Text: as §1, §2

[3] = biological target: Human GLP1R (Homo sapiens, UniProt P43220); set-up: expressed in transfected cells
Human GLP1R, sequence (P43220 24-463): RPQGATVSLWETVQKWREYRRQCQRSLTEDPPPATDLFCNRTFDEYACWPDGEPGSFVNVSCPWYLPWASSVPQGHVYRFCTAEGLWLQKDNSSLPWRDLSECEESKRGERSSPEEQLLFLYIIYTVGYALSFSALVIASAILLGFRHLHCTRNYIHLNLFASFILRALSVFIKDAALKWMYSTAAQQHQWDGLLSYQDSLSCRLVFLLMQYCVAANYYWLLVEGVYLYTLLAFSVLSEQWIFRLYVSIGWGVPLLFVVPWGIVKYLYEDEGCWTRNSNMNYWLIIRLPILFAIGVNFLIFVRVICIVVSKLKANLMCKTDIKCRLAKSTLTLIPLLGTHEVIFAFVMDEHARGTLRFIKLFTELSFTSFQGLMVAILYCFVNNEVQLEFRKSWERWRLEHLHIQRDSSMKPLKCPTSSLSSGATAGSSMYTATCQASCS
Text: as §1, §2

[4] = assay medium, read-out: hGIPR EC50
[5] = assay medium, read-out: hGlucR EC50
[6] = assay medium, read-out: hGLP1R EC50

| SMILES | EC50 [1, 4] | EC50 [2, 5] | EC50 [3, 6] | EC50 ([1]; hGIPR EC50, assay medium) | EC50 ([2]; hGlucR EC50, assay medium) | EC50 ([3]; hGLP1R EC50, assay medium) |
| --- | --- | --- | --- | --- | --- | --- |
| CCCCCCCCCCCCCCCC(=O)N[C@@H](CCC(=O)NCCCC[C@H](NC(=O)[C@H](CO)NC(=O)[C@H](Cc1ccc(O)cc1)NC(=O)[C@H](CC(=O)O)NC(=O)[C@H](CO)NC(=O)[C@@H](NC(=O)[C@H](Cc1ccccc1)NC(=O)[C@@H](NC(=O)CNC(=O)[C@H](CCC(N)=O)NC(=O)[C@H](CO)NC(=O)[C@@H](N)Cc1c[nH]cn1)[C@@H](C)O)[C@@H](C)O)C(=O)N[C@@H](Cc1ccc(O)cc1)C(=O)N[C@@H](CC(C)C)C(=O)N[C@@H](CC(=O)O)C(=O)N[C@@H](CO)C(=O)N[C@@H](CCC(=O)O)C(=O)N[C@@H](CCCNC(=N)N)C(=O)N[C@@H](C)C(=O)N[C@@H](CCCNC(=N)N)C(=O)N[C@@H](CC(=O)O)C(=O)N[C@@H](Cc1ccccc1)C(=O)N[C@H](C(=O)N[C@@H](C)C(=O)N[C@@H](Cc1c[nH]c2ccccc12)C(=O)N[C@@H](CC(C)C)C(=O)N[C@H](C(=O)N[C@@H](C)C(=O)NCC(=O)NCC(N)=O)C(C)C)C(C)C)C(=O)O [g728] (H-HSQGTFTSDYSK([γGlu-Palmitoyl])YLDSERARDFVAWLVAGG-NH2; N-terminus assumed) | 395 nM | 2.44 nM | 0.169 nM |  |  |  |
| CCCCCCCCCCCCCCCC(=O)N[C@@H](CCC(=O)NCCCC[C@H](NC(=O)[C@H](CCCCN)NC(=O)[C@H](CO)NC(=O)[C@H](Cc1ccc(O)cc1)NC(=O)[C@H](CC(=O)O)NC(=O)[C@H](CO)NC(=O)[C@@H](NC(=O)[C@H](Cc1ccccc1)NC(=O)[C@@H](NC(=O)CNC(=O)[C@H](CCC(N)=O)NC(=O)[C@H](CO)NC(=O)[C@@H](N)Cc1c[nH]cn1)[C@@H](C)O)[C@@H](C)O)C(=O)N[C@@H](CC(C)C)C(=O)N[C@@H](CC(=O)O)C(=O)N[C@@H](CO)C(=O)N[C@@H](CCC(=O)O)C(=O)N[C@@H](CCCNC(=N)N)C(=O)N[C@@H](C)C(=O)N[C@@H](CCC(N)=O)C(=O)N[C@@H](CC(=O)O)C(=O)N[C@@H](Cc1ccccc1)C(=O)N[C@H](C(=O)N[C@@H](CCC(N)=O)C(=O)N[C@@H](Cc1c[nH]c2ccccc12)C(=O)N[C@@H](CC(C)C)C(=O)N[C@H](C(=O)N[C@@H](C)C(=O)NCC(=O)NCC(N)=O)C(C)C)C(C)C)C(=O)O [g729] (H-HSQGTFTSDYSKK([γGlu-Palmitoyl])LDSERAQDFVQWLVAGG-NH2) |  |  |  | 209 nM | 0.0319 nM | 0.0729 nM |
| CCCCCCCCCCCCCCCC(=O)N[C@@H](CCC(=O)NCCCC[C@H](NC(=O)[C@H](Cc1ccc(O)cc1)NC(=O)[C@H](CCC(=O)O)NC(=O)[C@H](CO)NC(=O)[C@H](Cc1ccc(O)cc1)NC(=O)[C@H](CC(=O)O)NC(=O)[C@H](CO)NC(=O)[C@@H](NC(=O)[C@H](Cc1ccccc1)NC(=O)[C@@H](NC(=O)CNC(=O)[C@H](CCC(N)=O)NC(=O)[C@H](CO)NC(=O)[C@@H](N)Cc1c[nH]cn1)[C@@H](C)O)[C@@H](C)O)C(=O)N[C@@H](CC(=O)O)C(=O)N[C@@H](CO)C(=O)N[C@@H](CCCNC(=N)N)C(=O)N[C@@H](CCCNC(=N)N)C(=O)N[C@@H](C)C(=O)N[C@@H](CCC(N)=O)C(=O)N[C@@H](CC(=O)O)C(=O)N[C@@H](Cc1ccccc1)C(=O)N[C@H](C(=O)N[C@@H](CCC(N)=O)C(=O)N[C@@H](Cc1c[nH]c2ccccc12)C(=O)N[C@@H](CC(C)C)C(=O)N[C@H](C(=O)N[C@@H](C)C(=O)NCC(=O)NCC(N)=O)C(C)C)C(C)C)C(=O)O [g731] (H-HSQGTFTSDYSEYK([γGlu-Palmitoyl])DSRRAQDFVQWLVAGG-NH2; N-terminus assumed) | 40.7 nM | 0.0277 nM | 0.0422 nM |  |  |  |
| CCCCCCCCCCCCCCCC(=O)N[C@@H](CCC(=O)NCCCC[C@H](NC(=O)[C@H](Cc1ccc(O)cc1)NC(=O)[C@H](CCCCN)NC(=O)[C@H](CO)NC(=O)[C@H](Cc1ccc(O)cc1)NC(=O)[C@H](CC(=O)O)NC(=O)[C@H](CO)NC(=O)[C@@H](NC(=O)[C@H](Cc1ccccc1)NC(=O)[C@@H](NC(=O)CNC(=O)[C@H](CCC(=O)O)NC(=O)CNC(=O)[C@@H](N)Cc1c[nH]cn1)[C@@H](C)O)[C@@H](C)O)C(=O)N[C@@H](CC(=O)O)C(=O)N[C@@H](CO)C(=O)N[C@@H](CCCNC(=N)N)C(=O)N[C@@H](CCCNC(=N)N)C(=O)N[C@@H](C)C(=O)N[C@@H](CCC(N)=O)C(=O)N[C@@H](CC(=O)O)C(=O)N[C@@H](Cc1ccccc1)C(=O)N[C@H](C(=O)N[C@@H](CCC(N)=O)C(=O)N[C@@H](Cc1c[nH]c2ccccc12)C(=O)N[C@@H](CC(C)C)C(=O)N[C@H](C(=O)N[C@@H](C)C(=O)NCC(=O)NCC(N)=O)C(C)C)C(C)C)C(=O)O [g733] (H-HGEGTFTSDYSKYK([γGlu-Palmitoyl])DSRRAQDFVQWLVAGG-NH2) |  |  |  | 817 nM | 62 nM | 0.0231 nM |

The next lines start with results.

| EC50 [1, 4] | EC50 [2, 5] | EC50 [3, 6] | SMILES | EC50 ([1]; hGIPR EC50, assay medium) | EC50 ([2]; hGlucR EC50, assay medium) | EC50 ([3]; hGLP1R EC50, assay medium) |
| --- | --- | --- | --- | --- | --- | --- |
| 215 nM | 13.1 nM | 0.00791 nM | CCCCCCCCCCCCCCCC(=O)NCCCCCC(=O)NCCCC[C@H](NC(=O)[C@H](CO)NC(=O)[C@H](CC(=O)O)NC(=O)[C@H](CC(C)C)NC(=O)[C@H](Cc1ccc(O)cc1)NC(=O)[C@H](CCC(=O)O)NC(=O)[C@H](CO)NC(=O)[C@H](Cc1ccc(O)cc1)NC(=O)[C@H](CC(=O)O)NC(=O)[C@H](CO)NC(=O)[C@@H](NC(=O)[C@H](Cc1ccccc1)NC(=O)[C@@H](NC(=O)CNC(=O)[C@H](CCC(=O)O)NC(=O)CNC(=O)[C@@H](N)Cc1c[nH]cn1)[C@@H](C)O)[C@@H](C)O)C(=O)N[C@@H](CCCNC(=N)N)C(=O)N[C@@H](C)C(=O)N[C@@H](CCCNC(=N)N)C(=O)N[C@@H](CC(=O)O)C(=O)N[C@@H](Cc1ccccc1)C(=O)N[C@H](C(=O)N[C@@H](CCC(=O)O)C(=O)N[C@@H](Cc1c[nH]c2ccccc12)C(=O)N[C@@H](CC(C)C)C(=O)N[C@@H](CCC(=O)O)C(=O)N[C@@H](CCCNC(=N)N)C(=O)NCC(=O)NCC(N)=O)C(C)C [g726] (H-HGEGTFTSDYSEYLDSK([Ahx-Palmitoyl])RARDFVEWLERGG-NH2; N-terminus assumed) |  |  |  |
| 177 nM | 0.218 nM | 0.0263 nM | CCCCCCCCCCCCCCCC(=O)NCCCCCC(=O)NCCCC[C@H](NC(=O)[C@H](CO)NC(=O)[C@H](CC(=O)O)NC(=O)[C@H](CC(C)C)NC(=O)[C@H](Cc1ccc(O)cc1)NC(=O)[C@H](CCC(=O)O)NC(=O)[C@H](CO)NC(=O)[C@H](Cc1ccc(O)cc1)NC(=O)[C@H](CC(=O)O)NC(=O)[C@H](CO)NC(=O)[C@@H](NC(=O)[C@H](Cc1ccccc1)NC(=O)[C@@H](NC(=O)CNC(=O)[C@H](CCC(N)=O)NC(=O)CNC(=O)[C@@H](N)Cc1c[nH]cn1)[C@@H](C)O)[C@@H](C)O)C(=O)N[C@@H](CCCNC(=N)N)C(=O)N[C@@H](C)C(=O)N[C@@H](CCCNC(=N)N)C(=O)N[C@@H](CC(=O)O)C(=O)N[C@@H](Cc1ccccc1)C(=O)N[C@H](C(=O)N[C@@H](C)C(=O)N[C@@H](Cc1c[nH]c2ccccc12)C(=O)N[C@@H](CC(C)C)C(=O)N[C@@H](CCC(=O)O)C(=O)N[C@@H](CCCNC(=N)N)C(=O)NCC(=O)NCC(=O)O)C(C)C [g727] (H-HGQGTFTSDYSEYLDSK([Ahx-Palmitoyl])RARDFVAWLERGG-OH; N-terminus assumed) |  |  |  |
| 29.4 nM | 0.0396 nM | 0.0232 nM | CCCCCCCCCCCCCCCC(=O)N[C@@H](CCC(=O)NCCCC[C@H](NC(=O)[C@H](Cc1ccc(O)cc1)NC(=O)[C@H](CCCCN)NC(=O)[C@H](CO)NC(=O)[C@H](Cc1ccc(O)cc1)NC(=O)[C@H](CC(=O)O)NC(=O)[C@H](CO)NC(=O)[C@@H](NC(=O)[C@H](Cc1ccccc1)NC(=O)[C@@H](NC(=O)CNC(=O)[C@H](CCC(N)=O)NC(=O)CNC(=O)[C@@H](N)Cc1c[nH]cn1)[C@@H](C)O)[C@@H](C)O)C(=O)N[C@@H](CC(=O)O)C(=O)N[C@@H](CO)C(=O)N[C@@H](CCC(=O)O)C(=O)N[C@@H](CCCNC(=N)N)C(=O)N[C@@H](C)C(=O)N[C@@H](CCCNC(=N)N)C(=O)N[C@@H](CC(=O)O)C(=O)N[C@@H](Cc1ccccc1)C(=O)N[C@H](C(=O)N[C@@H](C)C(=O)N[C@@H](Cc1c[nH]c2ccccc12)C(=O)N[C@@H](CC(C)C)C(=O)N[C@H](C(=O)N[C@@H](C)C(=O)NCC(=O)NCC(N)=O)C(C)C)C(C)C)C(=O)O [g732] (H-HGQGTFTSDYSKYK([γGlu-Palmitoyl])DSERARDFVAWLVAGG-NH2; N-terminus assumed) |  |  |  |
| 1170 nM | 82.8 nM | 0.0695 nM | CCCCCCCCCCCCCCCC(=O)NCCC(=O)NCCCC[C@H](NC(=O)[C@H](CO)NC(=O)[C@H](CC(=O)O)NC(=O)[C@H](CC(C)C)NC(=O)[C@H](Cc1ccc(O)cc1)NC(=O)[C@H](CCC(=O)O)NC(=O)[C@H](CO)NC(=O)[C@H](Cc1ccc(O)cc1)NC(=O)[C@H](CC(=O)O)NC(=O)[C@H](CO)NC(=O)[C@@H](NC(=O)[C@H](Cc1ccccc1)NC(=O)[C@@H](NC(=O)CNC(=O)[C@H](CCC(=O)O)NC(=O)[C@H](CO)NC(=O)[C@@H](N)Cc1c[nH]cn1)[C@@H](C)O)[C@@H](C)O)C(=O)N[C@@H](CCCNC(=N)N)C(=O)N[C@@H](C)C(=O)N[C@@H](CCCNC(=N)N)C(=O)N[C@@H](CC(=O)O)C(=O)N[C@@H](Cc1ccccc1)C(=O)N[C@H](C(=O)N[C@@H](C)C(=O)N[C@@H](Cc1c[nH]c2ccccc12)C(=O)N[C@@H](CC(C)C)C(=O)N[C@@H](CCC(=O)O)C(=O)N[C@@H](C)C(=O)NCC(=O)NCC(N)=O)C(C)C [g734] (H-HSEGTFTSDYSEYLDSK([βAla-Palmitoyl])RARDFVAWLEAGG-NH2; N-terminus assumed) |  |  |  |
